Assay results reported in US12540161B2, “Linkers” (BicycleTx Limited, priority 2020, dated 2026).
Several values for one entry are separate records, joined by “and”; a condition that tells them apart may be missing. Equal values may be shown once.

Tests used:
in vitro [1] = settings: human, plasma
in vitro [2] = settings: rat, plasma
HT1080 xenograft = experiment: In vivo efficacy study in the HT1080 xenograft model in BALB/c nude mice (Example 6); settings: for Tumor volume, day 0 / Tumor volume, day 2 / Tumor volume, day 4 / Tumor volume, day 6 / Tumor volume, day 9 / T/C (%) / TGI (%) / Tumor volume, day 11: iv, qw; for Tumor volume, day 0: day 0 after the start of treatment; for Tumor volume, day 0 / Tumor volume, day 2 / Tumor volume, day 4 / Tumor volume, day 6 / Tumor volume, day 9 / Tumor volume, day 11: mean ± SEM; for T/C (%) / TGI (%) / Tumor volume, day 11: day 11
Protocol: • Species: Mus Musculus • Strain: BALB/c nude • Age: 6-8 weeks • Sex: female • Body weight: 18-22 g • Number of animals: 35 mice plus spare • Animal supplier: Shanghai Lingchang Biotechnology Experimental Animal Co., LTD. Housing Condition • The mice were kept in individual ventilation cages at constant temperature and humidity with 5 animals in each cage. • Temperature: 20˜26° C. • Humidity 40-70%. • Cages: Made of polycarbonate. The size is 375 mm×215 mm×180 mm.
The HT1080 cells were maintained in EMEM medium supplemented with 10% heat inactivated fetal bovine serum at 37° C. in an atmosphere of 5% CO2 in air. The tumor cells were routinely sub-cultured twice weekly. The cells growing in an exponential growth phase were harvested and counted for tumor inoculation.
Each mouse was inoculated subcutaneously at the right flank with HT1080 tumor cells (5×10^6) in 0.2 ml of PBS for tumor development. Animals were randomized when the average tumor volume reached 320 mm^3 for efficacy study. The test article administration and the animal numbers in each group were shown in the experimental design table.
All the procedures related to animal handling, care and the treatment in the study were performed according to the guidelines approved by the Institutional Animal Care and Use Committee (IACUC) of WuXi AppTec, following the guidance of the Association for Assessment and Accreditation of Laboratory Animal Care (AAALAC). At the time of routine monitoring, the animals were checked for any effects of tumor growth and treatments on normal behavior such as mobility, food and water consumption (by observation only), body weight gain/loss, eye/hair matting and any other abnormal effect as stated in the protocol. Death and observed clinical signs were recorded on the basis of the numbers of animals within each subset.
The major endpoint was to see if the tumor growth could be delayed or mice could be cured. Tumor volume was measured three times weekly in two dimensions using a caliper, and the volume was expressed in mm^3 using the formula: V=0.5 a×b^2 where a and b are the long and short diameters of the tumor, respectively. The tumor size was then used for calculations of T/C value. The T/C value (in percent) is an indication of antitumor effectiveness; T and C are the mean volumes of the treated and control groups, respectively, on a given day.
TGI was calculated for each group using the formula: TGI (%)=[1−(Ti−T0)/(Vi−Vo)]×100; Ti is the average tumor volume of a treatment group on a given day, T0 is the average tumor volume of the treatment group on the day of treatment start, Vi is the average tumor volume of the vehicle control group on the same day with Ti, and V0 is the average tumor volume of the vehicle group on the day of treatment start.
Summary statistics, including mean and the standard error of the mean (SEM), were provided for the tumor volume of each group at each time point.
Statistical analysis of difference in tumor volume among the groups was conducted on the data obtained at the best therapeutic time point after the final dose.
A one-way ANOVA was performed to compare tumor volume among groups, and when a significant F-statistics (a ratio of treatment variance to the error variance) was obtained, comparisons between groups were carried out with Games-Howell test. A two-tailed T test was performed to compare tumor volume between two groups. All data were analyzed using GraphPad 5.0. P<0.05 was considered to be statistically significant.

[3] = 7 animals of group 5 and 6 treated with BCY10984 45 μM, average starting tumor size 1291 mm^3

CC[C@H](C)[C@@H]([C@@H](CC(=O)N1CCC[C@H]1[C@H](OC)[C@@H](C)C(=O)N[C@H](C)[C@@H](O)c1ccccc1)OC)N(C)C(=O)[C@@H](NC(=O)[C@H](C(C)C)N(C)C(=O)OCc1ccc(NC(=O)[C@H](CCCNC(N)=O)NC(=O)[C@H](Cc2cccc3ccccc23)NC(=O)[C@H](CCC(=O)O)NC(=O)Cn2cc(CCC(=O)NCCC(=O)N(C)CC(=O)N(C)CC(=O)N(C)CC(=O)N(C)CC(=O)N(C)CC(=O)N(C)CC(=O)N(C)CC(=O)N(C)CC(=O)N(C)CC(=O)N(C)CC(=O)N[C@@H](C)C(=O)N[C@H]3CN(C)Cc4cc5cc(c4)CN(C)C[C@@H](C(N)=O)NC(=O)[C@H](C(C)(C)C)NC(=O)[C@H](CC(=O)O)NC(=O)[C@H](Cc4ccc(O)cc4)NC(=O)[C@H](Cc4ccccc4)NC(=O)[C@H](CC(=O)O)NC(=O)[C@H](CCC(=O)O)NC(=O)[C@H](CSC5)NC(=O)[C@@H](C)NC(=O)[C@H](Cc4cccc5ccccc45)NC(=O)[C@H](CCC(=O)O)NC(=O)[C@H](CC(N)=O)NC(=O)[C@@H](C)NC3=O)nn2)cc1)C(C)C [BCY10984, MMAE-PAB-(Cit-1Nal-Glu)-BCY3900]
fraction unbound (in vitro [1]): 0.031 | fraction unbound (in vitro [2]; PPB (% Unbound), rat (Table 9)): 0.04 | fraction unbound (in vitro [2]; Plasma protein binding (% Unbound) Rat): 0.035 | anti-tumor efficacy compared with BCY12951 (HT1080 xenograft; 5 μM): comparable anti-tumor efficacy | anti-tumor activity (HT1080 xenograft; 5 μM, 15 μM and 45 μM qw): dose-dependent anti-tumor activity | Tumor volume, day 0 (HT1080 xenograft; 5 μM): 320 ± 48 mm^3 | Tumor volume, day 2 (HT1080 xenograft; 5 μM): 508 ± 49 mm^3 | Tumor volume, day 4 (HT1080 xenograft; 5 μM): 681 ± 64 mm^3 | Tumor volume, day 6 (HT1080 xenograft; 5 μM): 750 ± 50 mm^3 | Tumor volume, day 9 (HT1080 xenograft; 5 μM): 958 ± 53 mm^3 | T/C (%) (HT1080 xenograft; 5 μM): 72.6% | TGI (%) (HT1080 xenograft; 5 μM): 33.6% | Tumor volume, day 11 (HT1080 xenograft; 5 μM): 1257 mm^3 and 1257 ± 95 mm^3 | anti-tumor efficacy compared with BCY12951 at the same molar dosage (HT1080 xenograft; 15 μM and 45 μM): more potent efficacy | Tumor volume, day 0 (HT1080 xenograft; 15 μM): 321 ± 43 mm^3 | Tumor volume, day 2 (HT1080 xenograft; 15 μM): 519 ± 76 mm^3 | Tumor volume, day 4 (HT1080 xenograft; 15 μM): 428 ± 88 mm^3 | Tumor volume, day 6 (HT1080 xenograft; 15 μM): 378 ± 128 mm^3 | Tumor volume, day 9 (HT1080 xenograft; 15 μM): 304 ± 112 mm^3 | T/C (%) (HT1080 xenograft; 15 μM): 16.6% | TGI (%) (HT1080 xenograft; 15 μM): 102.3% | Tumor volume, day 11 (HT1080 xenograft; 15 μM): 288 mm^3 and 288 ± 126 mm^3 | tumor eradication (HT1080 xenograft; 45 μM qw): eradicated the tumors completely on day 16 | Tumor volume, day 0 (HT1080 xenograft; 45 μM): 320 ± 32 mm^3 | Tumor volume, day 2 (HT1080 xenograft; 45 μM): 489 ± 68 mm^3 | Tumor volume, day 4 (HT1080 xenograft; 45 μM): 285 ± 90 mm^3 | Tumor volume, day 6 (HT1080 xenograft; 45 μM): 139 ± 46 mm^3 | Tumor volume, day 9 (HT1080 xenograft; 45 μM): 29 ± 10 mm^3 | T/C (%) (HT1080 xenograft; 45 μM): 0.9% | TGI (%) (HT1080 xenograft; 45 μM): 121.6% | Tumor volume, day 11 (HT1080 xenograft; 45 μM): 15 mm^3 and 15 ± 6 mm^3 | tumor response after the first dosing (HT1080 xenograft; [3]): sudden tumor regression | tumor response after the second dosing (HT1080 xenograft; [3]): all tumors were eradicated completely | tumor growth (FIG. 17) (HT1080 xenograft; mice from Group 5 and 6 dosed with 45 μM BCY10984): potent inhibition of tumor growth
